Earlier results in patent US20150057617A1, “ANTI-MICROBIAL DRESSING, AN ANTI-MICROBIAL COMPOSITION AND USE THEREOF” (EMODIAL S.r.l., priority 2012, published 2015).

System: fibroblasts

[H]/N=C(\N/C(=N/[H])NCCCCCCNC(=N)NC(=N)Nc1ccc(Cl)cc1)Nc1ccc(Cl)cc1 [chlorhexidine]
cytotoxicity for fibroblasts: cytotoxic for fibroblasts
